Laboratory results published in publication PMC6036094 (International Journal of Medical Sciences, 2018).
Like-named read-outs stand apart in the source and are kept apart here.

Assay type: in vivo, Male Wistar rats
Conditions: for Concentration in kidneys / Concentration in small intestine / Kidney-to-plasma concentration ratio / Skin tissue-to-plasma concentration ratio / Small intestine-to-plasma concentration ratio / Concentration in skin tissue: mean ± SD; for concentration at 1 h / concentration at 8 h / concentration at 24 h: male, Wistar, rat, po
[1] = 1 to 24 h after oral administration

Row | Structure (SMILES) | Skin tissue-to-plasma concentration ratio (1 h after oral administration) | Skin tissue-to-plasma concentration ratio (24 h after oral administration) | concentration at 1 h (kidneys) [ng/g] | concentration at 8 h (kidneys) [ng/g] | concentration at 24 h (kidneys) [ng/g] | concentration at 1 h (skin tissue) [ng/g] | concentration at 8 h (skin tissue) [ng/g] | concentration at 1 h (small intestine) [ng/g] | concentration at 8 h (small intestine) [ng/g] | Time course of kidney-to-plasma concentration ratio [1] | other results
1 | Cc1ccc([C@@H]2O[C@H](CO)[C@@H](O)[C@H](O)[C@H]2O)cc1Cc1ccc(-c2ccc(F)cc2)s1 [Canagliflozin, canagliflozin] | 0.18±0.18 | 0.26±0.20 |  |  |  |  |  |  |  |  | Concentration in kidneys (1 h after oral administration): 802.7 ± 269.2 ng/g; Concentration in small intestine (1 h after oral administration): 2925.2 ± 1074.2 ng/g; Kidney-to-plasma concentration ratio (1 h after oral administration): 3.69±2.84; Small intestine-to-plasma concentration ratio (1 h after oral administration): 12.93±9.88; Concentration in kidneys (8 h after oral administration): 1014.1 ± 306.0 ng/g; Concentration in skin tissue (8 h after oral administration): 82.6 ± 22.9 ng/g; Concentration in small intestine (8 h after oral administration): 440.1 ± 117.2 ng/g; Kidney-to-plasma concentration ratio (8 h after oral administration): 2.11±0.54; Skin tissue-to-plasma concentration ratio (8 h after oral administration): 0.17±0.03; Small intestine-to-plasma concentration ratio (8 h after oral administration): 0.92±0.20; Concentration in kidneys (24 h after oral administration): 636.2 ± 222.5 ng/g; Concentration in skin tissue (24 h after oral administration): 20.1 ± 11.6 ng/g; Concentration in small intestine (24 h after oral administration): 325.9 ± 218.0 ng/g; Kidney-to-plasma concentration ratio (24 h after oral administration): 7.55±2.62; Small intestine-to-plasma concentration ratio (24 h after oral administration): 4.05±2.83
2 | CCOc1ccc(Cc2cc([C@@H]3O[C@H](CO)[C@@H](O)[C@H](O)[C@H]3O)ccc2Cl)cc1 [Dapagliflozin, dapagliflozin] |  |  | 1030 ± 521 | 531 ± 191 | 170 ± 40.2 | 42.6 ± 24.7 | 13 ± 5 | 37.9 ± 10.3 | 19.7 ± 6.7 |  | 
3 | OC[C@H]1O[C@@H](c2ccc(F)c(Cc3cc4ccccc4s3)c2)[C@H](O)[C@@H](O)[C@@H]1O [Ipragliflozin, ipragliflozin] | 0.45±0.20 | 5.82±3.66 | 1420 ± 405 | 1090 ± 456 | 301 ± 86.9 | 152 ± 53.4 | 168 ± 28.7 | 730 ± 377 | 348 ± 105 | tended to increase | Time course of skin tissue-to-plasma concentration ratio [1]: increased in a time-dependent manner; Skin tissue-to-plasma concentration ratio (1 h after oral administration, listed as ipragliflozin): 0.45 ± 0.20; Skin tissue-to-plasma concentration ratio (24 h after oral administration, listed as ipragliflozin): 5.82 ± 3.66; concentration at 24 h (skin tissue, 1 mg/kg): 90.6 ± 38.9 ng/g
4 | CCOc1ccc(Cc2cc([C@@H]3S[C@H](CO)[C@@H](O)[C@H](O)[C@H]3O)c(OC)cc2C)cc1 [Luseogliflozin, luseogliflozin] |  |  | 94.9 ± 74.3 | 80.1 ± 51.7 |  |  |  | 251 ± 178 |  |  | 
5 | CCc1ccc(Cc2ccc3c(c2)[C@]2(OC3)O[C@H](CO)[C@@H](O)[C@H](O)[C@H]2O)cc1 [Tofogliflozin, tofogliflozin] |  |  | 848 ± 116 | 492 ± 101 | 201 ± 42.9 | 103 ± 29.2 | 27.1 ± 3.2 | 1360 ± 513 | 250 ± 114 | increased time-dependently | 
